In the supplement of paper PMC11208160:

Assay: recombinant UMI read abundance after kanamycin selection (control-corrected) (log10(CPM+1)); higher = more efficient recombination; extreme values may be limits of the assay; sequences stand for … in AGTGCAGAGAAAATCGGCCAGTTTTCTCTGCCTGCAGTCCGCATGCCGTGGGACCCCTTGGGTTCTAACCTGTTGCCTAGATTTATGCAGCGGACTGCCTTTCTCCCAAAGTGATAAACCGG…AGGTTGGTTTCACT; site = the 11-nt donor
In short: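 Counts of recombinant UMIs were reported as log10(CPM+1). Before that, they were converted to CPM, averaged over replicates and scaled using control-derived factors. They came from PCR across the donor–target junction after Escherichia coli carrying the pair library and target plasmid was plated on IPTG (0.07 mM) plus kanamycin, or unselected, in two replicates each.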
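Also: IS621 bridge recombinase in Escherichia coli cells against a fixed T5 target plasmid.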

Sequence	recombinant UMI read abundance (log10)
CAGTCCTCATGGACCGGTTTTCCCGGTAATCCGTATTTGAA (site CAGTCCTCTTT)	1.96
CAGTCGACATGGACCGGTTTTCCCGGTAATCCGTATTTGAG (site CAGTCGACTCA)	0.00421
CAGTCGACATGGACCGGTTTTCCCGGTAATCCGTATTTGAG (site CAGTCGACTCC)	0.0115
CAGTCGACATGGACCGGTTTTCCCGGTAATCCGTATTTGAG (site CAGTCGACTCG)	0.00367
CAGTCGACATGGACCGGTTTTCCCGGTAATCCGTATTTGAG (site CAGTCGACTCT)	0.855
CAGTCGGCATGGACCGGTTTTCCCGGTAATCCGTATTTGGG (site CAGTCGACTCC)	0.027
CAGTCGGCATGGACCGGTTTTCCCGGTAATCCGTATTTGGG (site CAGTCGCCTCC)	0.0091
CAGTCGGCATGGACCGGTTTTCCCGGTAATCCGTATTTGGG (site CAGTCGGCTCC)	0.157
CAGTCGGCATGGACCGGTTTTCCCGGTAATCCGTATTTGGG (site CAGTCGTCTCC)	0.0153
CAGTCGGCATGGACCGGTTTTCCCGGTAATCCGTATTTGGT (site CAGTCGGCTAC)	0.814
CAGTGTACATGGACCGGTTTTCCCGGTAATCCGTATTTGCA (site CAGTGTACTTG)	2.48
CAGTTACCATGGACCGGTTTTCCCGGTAATCCGTATTTGCC (site CAGTTACCTGG)	0
CAGTTCTCATGGACCGGTTTTCCCGGTAATCCGTATTTGGC (site CAGTTCTCTGC)	3.27
CAGTTGCCATGGACCGGTTTTCCCGGTAATCCGTATTTGGT (site CAGTTGCCTAC)	0.0159
CAGTTGTCATGGACCGGTTTTCCCGGTAATCCGTATTTGCG (site CAGTTGTCTCG)	3.14
CATAACCCATGGACCGGTTTTCCCGGTAATCCGTATTTGAT (site CATAACCCTAT)	1.19
CATAATCCATGGACCGGTTTTCCCGGTAATCCGTATTTGTT (site CATAATCCTAA)	0.529
CATAATCCATGGACCGGTTTTCCCGGTAATCCGTATTTGTT (site CGGAATCCTAA)	0.00373
CATAGCACATGGACCGGTTTTCCCGGTAATCCGTATTTGTA (site CATAGCACTTA)	1.96
CATATCCCATGGACCGGTTTTCCCGGTAATCCGTATTTGAC (site CATATCCCTGT)	0.73
CATCACACATGGACCGGTTTTCCCGGTAATCCGTATTTGGG (site CATCACACTCC)	0.0249
CATCGCCCATGGACCGGTTTTCCCGGTAATCCGTATTTGGT (site CATCGCCCTAC)	0.296
CATCTGACATGGACCGGTTTTCCCGGTAATCCGTATTTGCG (site CATCTGACTCG)	1.45
CATCTGTCATGGACCGGTTTTCCCGGTAATCCGTATTTGAC (site CATCTGTCTGT)	0
CATCTTGCATGGACCGGTTTTCCCGGTAATCCGTATTTGGT (site CATCTTGCTAC)	0.825

Sequence	recombinant UMI read abundance (log10)
CATGACTCATGGACCGGTTTTCCCGGTAATCCGTATTTGTT (site CATGACTCTAA)	2.08
CATGCCTCATGGACCGGTTTTCCCGGTAATCCGTATTTGTG (site CATGCCTCTCA)	1.43
CATGGCTCATGGACCGGTTTTCCCGGTAATCCGTATTTGCG (site CATGGCTCTCG)	2.15
CATGTAACATGGACCGGTTTTCCCGGTAATCCGTATTTGCT (site AATGTAACTAG)	0.624
CATGTAACATGGACCGGTTTTCCCGGTAATCCGTATTTGCT (site CATGTAACTAG)	2.28
CATGTAACATGGACCGGTTTTCCCGGTAATCCGTATTTGCT (site GATGTAACTAG)	0.28
CATGTAACATGGACCGGTTTTCCCGGTAATCCGTATTTGCT (site TATGTAACTAG)	0.869
CATGTGTCATGGACCGGTTTTCCCGGTAATCCGTATTTGAC (site AATGTGTCTGT)	0
CATGTGTCATGGACCGGTTTTCCCGGTAATCCGTATTTGAC (site CATGTGTCTGT)	0.602
CATGTGTCATGGACCGGTTTTCCCGGTAATCCGTATTTGAC (site GATGTGTCTGT)	0
CATGTGTCATGGACCGGTTTTCCCGGTAATCCGTATTTGAC (site TATGTGTCTGT)	0.00981
CATGTTCCATGGACCGGTTTTCCCGGTAATCCGTATTTGTG (site CATGTTCCTCA)	0.0131
CATTAGTCATGGACCGGTTTTCCCGGTAATCCGTATTTGTT (site CATTAGTCTAA)	2.03
CATTCAACATGGACCGGTTTTCCCGGTAATCCGTATTTGCC (site CATTCAACTGG)	0.426
CATTCCTCATGGACCGGTTTTCCCGGTAATCCGTATTTGCC (site CAATCCTCTGG)	1.59
CATTCCTCATGGACCGGTTTTCCCGGTAATCCGTATTTGCC (site CACTCCTCTGG)	1.09
CATTCCTCATGGACCGGTTTTCCCGGTAATCCGTATTTGCC (site CAGTCCTCTGG)	0
CATTCCTCATGGACCGGTTTTCCCGGTAATCCGTATTTGCC (site CATTCCTCTGG)	1.47
CATTCGACATGGACCGGTTTTCCCGGTAATCCGTATTTGCG (site CATTCGACTCG)	0.32
CATTGACCATGGACCGGTTTTCCCGGTAATCCGTATTTGAG (site CATTGACCTCT)	0.0215
CATTGCACATGGACCGGTTTTCCCGGTAATCCGTATTTGTA (site CATTGCACTTA)	0.726
CATTGGACATGGACCGGTTTTCCCGGTAATCCGTATTTGCC (site CATTGGACTGG)	1.73
CATTTATCATGGACCGGTTTTCCCGGTAATCCGTATTTGCA (site GCCCGTCCTAC)	0.031
CATTTATCATGGACCGGTTTTCCCGGTAATCCGTATTTGGC (site CATTTATCTGC)	1.72
CATTTCCCATGGACCGGTTTTCCCGGTAATCCGTATTTGCT (site CAATTCCCTAG)	0.464

Sequence	recombinant UMI read abundance (log10)
CATTTCCCATGGACCGGTTTTCCCGGTAATCCGTATTTGCT (site CACTTCCCTAG)	0.691
CATTTCCCATGGACCGGTTTTCCCGGTAATCCGTATTTGCT (site CAGTTCCCTAG)	0.0164
CATTTCCCATGGACCGGTTTTCCCGGTAATCCGTATTTGCT (site CATTTCCCTAG)	0.788
CATTTGGCATGGACCGGTTTTCCCGGTAATCCGTATTTGTG (site AATTTGGCTCA)	0.0432
CATTTGGCATGGACCGGTTTTCCCGGTAATCCGTATTTGTG (site CATTTGGCTCA)	0.552
CATTTGGCATGGACCGGTTTTCCCGGTAATCCGTATTTGTG (site GATTTGGCTCA)	0.00627
CATTTGGCATGGACCGGTTTTCCCGGTAATCCGTATTTGTG (site TATTTGGCTCA)	0.106
CCAAACACATGGACCGGTTTTCCCGGTAATCCGTATTTGAT (site CCAAACACTAT)	1.8
CCAAAGGCATGGACCGGTTTTCCCGGTAATCCGTATTTGGC (site CCAAAGGCTGC)	0
CCAAATACATGGACCGGTTTTCCCGGTAATCCGTATTTGGC (site CCAAATACTGC)	0
CCAAATACATGGACCGGTTTTCCCGGTAATCCGTATTTGGC (site CCCAATACTGC)	0
CCAAATACATGGACCGGTTTTCCCGGTAATCCGTATTTGGC (site CCGAATACTGC)	0
CCAAATACATGGACCGGTTTTCCCGGTAATCCGTATTTGGC (site CCTAATACTGC)	0
CCAAATCCATGGACCGGTTTTCCCGGTAATCCGTATTTGTT (site CCAAATCCTAA)	0
CCAAATCCATGGACCGGTTTTCCCGGTAATCCGTATTTGTT (site CGGAATCCTAA)	0
CCAACTTCATGGACCGGTTTTCCCGGTAATCCGTATTTGGA (site CCAACTTCTTC)	0
CCAAGCACATGGACCGGTTTTCCCGGTAATCCGTATTTGCT (site CCAAGCACTAG)	0.32
CCAAGGACATGGACCGGTTTTCCCGGTAATCCGTATTTGTT (site CCAAGGACTAA)	0.865
CCAAGGTCATGGACCGGTTTTCCCGGTAATCCGTATTTGTT (site CCAAGGTCTAA)	2.12
CCAAGTGCATGGACCGGTTTTCCCGGTAATCCGTATTTGAT (site CCAAGTGCTAT)	1.57
CCAAGTGCATGGACCGGTTTTCCCGGTAATCCGTATTTGAT (site CCACGTGCTAT)	0.00443
CCAAGTGCATGGACCGGTTTTCCCGGTAATCCGTATTTGAT (site CCAGGTGCTAT)	0.02
CCAAGTGCATGGACCGGTTTTCCCGGTAATCCGTATTTGAT (site CCATGTGCTAT)	0
CCAATATCATGGACCGGTTTTCCCGGTAATCCGTATTTGTC (site CCAATATCTGA)	1.16
CCAATATCATGGACCGGTTTTCCCGGTAATCCGTATTTGTC (site CCCATATCTGA)	0.0129
